Here are results for one molecule from patent US10308620B2, “Muscarinic M1 receptor positive allosteric modulators” (SUVEN LIFE SCIENCES LIMITED, priority 2015, dated 2019).

Data set [1] is described as follows: Rodent brain penetration study. In kind it is in vivo. The following applies: rat, oral, 3 mg/kg, p.o., male Wistar rats, read-out: Single dose Rat Brain Penetration (Cb/Cp). The procedure: Rodent Brain Penetration Study
Male Wistar rats (260±40 grams) were used as experimental animals. Three animals were housed in each cage. Animals were given water and food ad libitum throughout the experiment and maintained on a 12 hours light/dark cycle.
Brain penetration was determined in discrete manner in rats. One day prior to dosing day, male Wistar rats were acclimatized and randomly grouped according to their weight. At each time point (0.50, 1 and 2 hours) n=3 animals were used.
The test compounds were suitably preformulated and administered orally at (free base equivalent) 3 mg/kg. Blood samples were removed via cardiac puncture by using isoflurane anesthesia. The animals were sacrificed to collect brain tissue. Plasma was separated and brain samples were homogenized and stored frozen at −20° C. until analysis. The concentrations of the test compounds in plasma and brain were determined using LC-MS/MS method.
The test compounds were quantified in plasma and brain homogenate by qualified LC-MS/MS method using suitable extraction technique. The test compounds were quantified in the calibration range of 1-500 ng/mL in plasma and brain homogenate. Study samples were analyzed using calibration samples in the batch and quality control samples spread across the batch. Extent of brain-plasma ratio was calculated (Cb/Cp).

The test system of data set [2] is soluble amyloid precursor protein α (sAPPα). The data set is described as follows: Cortical sAPPα levels in mice brain (ELISA). The class given is in vivo. The following applies: male C57BL/6J mice, 10 mg/kg, i.p., sixty minutes post treatment; FIG. 4. As to the method:
Modulation of Soluble Amyloid Precursor Protein α (sAPPα) Levels in Cortex
Estimation of Cortical sAPPα Levels in Mice Brain
Male C57BL/6J mice ([…]) were randomly divided (n=8 group) into five groups. Control group of mice were intraperitoneally (i.p.) administered with vehicle (99.75% of 0.25% HEC HHX+0.25% tween 80) and the treatment group of mice received a single intraperitoneal injection of example 18 (dose volume of 10 mL/kg). Mice were sacrificed by cervical dislocation at 60 minutes after administration of test compound. Brains were quickly isolated and the cortex was dissected at −20° C. The cortex was immediately kept on a dry ice and weighed before being stored at −80° C. until quantification of sAPPα using Enzyme-linked immunosorbent assay (ELISA).
• 1. […]
To investigate the role of an acute treatment of test compound on sAPPα levels, the expression of this protein was measured in homogenates obtained from the cortex of treated and untreated rats by employing ELISA assay. […]
Statistical analyses were performed using the Graph Pad Prism (Version 4). Results are expressed as Mean±SEM levels of sAPPα expressed as percentage of control values (rats treated with vehicle). Statistical significance after treatment was assessed using One-Way ANOVA followed by Dunnett's post test and the significance level was set below p value less than 0.05.
Background: In an ELISA, binding on a coated surface is turned into a signal by an enzyme label.

A further data set has as its system rats. Briefly: Contextual fear conditioning task (scopolamine induced memory deficit). In kind it is in vivo, rat. Conditions: scopolamine 0.3 mg/kg, s.c.; FIG. 3. As to the method:
Contextual Fear Conditioning Task
Experiment was carried out over a period of two days. On day 1, rats were placed in the operant behavior chamber and allowed to acclimatize for 2 minutes. Rats received an unavoidable foot shock (unconditioned stimulus (US): electric shock of 0.5-0.7 mA for 3 sec). Following a 1 minute interval, shocks were repeated to deliver a total of three US. Rats were administered with vehicle or test compound post training. Scopolamine (0.3 mg/kg, s.c.) was administered 120 minutes after training.
On day 2, rats were placed in the operant behavior chamber and total freezing time was scored for a period of 5 minutes.

In data set [3] the target is recombinant human Muscarinic M1 receptor (Homo sapiens (Human), UniProt P11229). The data set is described as follows: Allosteric potency EC50, CHO cells with pCRE-Luc reporter, in presence of EC20 of acetylcholine. In kind it is cell-based. Conditions: 4 hours. An outline of the steps: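 Stable CHO cells carrying human M1 receptor and a pCRE-Luc reporter, serum-starved overnight, then exposed to rising compound concentrations plus EC20 acetylcholine in OptiMEM for 4 h at 37 °C. Luciferase read after lysis. EC50 is the concentration giving 50% luciferase stimulation with EC20 acetylcholine present.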
recombinant human Muscarinic M1 receptor, sequence (P11229 whole entry): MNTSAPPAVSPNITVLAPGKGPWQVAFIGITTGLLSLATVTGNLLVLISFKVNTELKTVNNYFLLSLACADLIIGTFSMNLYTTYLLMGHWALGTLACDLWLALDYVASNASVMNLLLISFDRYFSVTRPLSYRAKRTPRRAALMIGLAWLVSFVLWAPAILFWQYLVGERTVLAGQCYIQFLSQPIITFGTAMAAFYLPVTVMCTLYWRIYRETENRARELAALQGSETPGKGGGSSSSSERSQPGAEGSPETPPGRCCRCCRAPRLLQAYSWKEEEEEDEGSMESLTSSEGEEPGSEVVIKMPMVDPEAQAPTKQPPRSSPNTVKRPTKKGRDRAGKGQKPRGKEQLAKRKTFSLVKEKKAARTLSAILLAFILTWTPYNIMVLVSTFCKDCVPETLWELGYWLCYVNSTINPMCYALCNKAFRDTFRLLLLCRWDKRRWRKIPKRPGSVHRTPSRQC

Take `O=C(N[C@H]1CCCC[C@@H]1O)C1=CN(Cc2cccc(F)c2F)c2ccccc2O1` [Example 18, N-(cis-1S, 2S-2-Hydroxycyclohexyl)-4-(2,3-difluorobenzyl)-4H-benzo[1,4]oxazine-2-carboxamide]: the Kp in data set [1] came out at 2.27 ± 0.64. Moreover, in data set [2], the “mean increase in cortical sAPPα levels” value is listed as 38%. In addition, in the data set on rats, the “Effect on scopolamine induced memory deficit (freezing time)” value was “reversed the scopolamine induced memory deficit”. The EC50 (as a rule, the concentration needed to bring the measured effect to its halfway point) in data set [3] came out at 331 nM.
